Reference: US20250146022A1, “STABILISING THE HUMAN SPINDLE BY KIFC1/HSET” (MAX-PLANCK-GESELLSCHAFT ZUR FOERDERUNG DER WISSENSCHAFTEN …, priority 2021, published 2025)

Key:
[1] = test system: human tripronuclear (3PN) zygotes; assay: Live imaging of spindle assembly and chromosome segregation in human 3PN zygotes injected with KIFC1; assay type: cell-based; conditions: for multipolar / bipolar spindle assembly: human 3PN zygotes, FIG. 9, B to D
From the text: Spindles in human fertilized eggs (zygotes) have also been reported to often be multipolar (6, 7, 122). […] The inventors thus tested if the introduction of exogenous KIFC1 increased the fidelity of spindle assembly and chromosome segregation in human zygotes, by using human tripronuclear (3PN) zygotes. Similar to the zygotes in (6, 7, 122), these zygotes frequently assembled multipolar spindles. […] Furthermore, introduction of mClover3-KIFC1 protein increased the frequency of zygotes with aligned chromosomes at anaphase onset from 20% to 57% (FIG. 9E), and the frequency of zygotes without lagging chromosomes during anaphase from 40% to 71% (FIG. 9F). Thus, introducing exogenous KIFC1 increased the efficiency of bipolar spindle assembly and reduced the risk of aneuploidy in human zygotes.
The use of human 3PN zygotes in this study was approved by the Ärztekammer Niedersachsen under the reference Bo/46/2020. Zygotes were collected from patients who underwent assisted reproduction treatment at Kinderwunschzentrum Göttingen and Fertility Center Berlin. All patients gave informed consent for their 3PN zygotes to be used in this study. For zygotes collected at Kinderwunschzentrum Göttingen, zygotes were cultured in G-1 PLUS medium (Vitrolife) under paraffin oil at 37° C. and 5% CO2. For zygotes collected at Fertility Center Berlin, zygotes were vitrified with Cryolock (FUJIFILM Irvine Scientific) using Vit Kit-Freeze (FUJIFILM Irvine Scientific). To maximize the survival and developmental rate of vitrified-thawed zygotes, zygotes were thawed in 1 ml of prewarmed G-MOPS PLUS (Vitrolife) containing 1 M D-(+)-trehalose (Sigma-Aldrich) at 37° C. for 1 min. Zygotes were then transferred to 300 μl of G-MOPS PLUS containing 0.5 M D-(+)-trehalose at room temperature for 3 min, 300 μl of G-MOPS PLUS containing 0.25 M D-(+)-trehalose at room temperature for 5 min, and 300 μl of G-MOPS PLUS at room temperature for 2 min. Recovered zygotes were cultured in G1-PLUS supplemented with 10% FBS under paraffin oil at 37° C. and 5% CO2. Staining and microinjection of human zygotes were performed as described above for human oocytes.

[2] = test system: KIFC1/HSET-depleted aMTOC-free mouse oocytes; assay: Rescue of spindle polarity in KIFC1/HSET-depleted aMTOC-free mouse oocytes (human oocyte mimics); assay type: cell-based
From the text: This domain, together with the conserved, microtubule-binding motor domain, allows KIFC1/HSET to organize microtubules via crosslinking and/or sliding (86). To investigate the requirement of different domains in KIFC1/HSET, the inventors expressed a series of truncation mutants in aMTOC-free mouse oocytes (FIG. 7K). […] To examine whether the motor activity is dispensable for the function of KIFC1/HSET in aMTOC-free mouse oocytes, the inventors depleted endogenous KIFC1/HSET by follicle RNAi and restored expression with wild-type HSET or with HSET(N593K), which crosslinks microtubules but cannot slide (87). […] Together, the inventors infer that the appropriate level of KIFC1/HSET's crosslinking and sliding activities are required for proper bipolar spindle assembly in the absence of aMTOCs.
Mouse follicles were microinjected with 3.5 pl of siRNAs at a needle concentration of 2 μM as previously described (11). For rescue experiments, in vitro grown oocytes were microinjected with 3.5 pl of mRNAs. mClover3-HSET mRNA was microinjected at a needle concentration of 275 ng/μl, mClover3-HSET(N593K) mRNA at 275 ng/μl, mClover3-NUMA(S1955D) mRNA at 400 ng/μl, mClover3-NUMA(S1955A) mRNA at 400 ng/μl, mClover3-NUMA(SpM-4A) mRNA at 400 ng/μl, mClover3-NUMA(ΔMTBD1) mRNA at 400 ng/μl and mClover3-NUMA(ΔMTBD2) mRNA at 400 ng/μl. Oocytes were allowed to express the mRNAs for 3-4 h before release.
To obtain mouse MI spindles, oocytes were incubated at 37° C. for around 7 h after released into dbcAMP-free medium. To obtain porcine and bovine MI spindles, oocytes were incubated at 39° C./5% CO2 for around 11 and 12 h, respectively, after released into RO-3306-free medium. To obtain human MI spindles, oocytes were incubated at 37° C. for around 14 and 15 h after NEBD. None of the oocytes used for immunofluorescence analyses was subjected to live imaging before fixation.
Time-lapse movies of live mouse, bovine and porcine oocytes, and fixed human and mouse spindles were analyzed in 3D using Imaris (Bitplane). To determine the stages of meiosis and to score for spindle instability, the timing of meiotic progression was quantified relative to the timing of NEBD. NEBD was defined as the time point when the sharp boundary between the nucleus and cytoplasm disappeared in the differential interference contrast image (for mouse oocytes) or when the nucleus started collapsing in the H2B channel (for bovine and porcine oocytes). Spindle poles were defined as regions of MAP4 or MAP4-MTBD or α-tubulin intensity that prominently protruded from the main microtubule mass. In FIG. 1D, oocytes with bipolar spindle, in which ends of all microtubules converged at the poles, were scored as having focused poles. […] For mouse oocytes, unfocused poles were further classified into mildly unfocused poles (with partially separated microtubule ends) and severely unfocused poles (with fully separated microtubule ends). In FIG. 4D, bovine and porcine oocytes, in which the spindle maintained a barrel-shaped bipolar morphology and a detectable spindle axis, were scored as having stable spindle poles. Oocytes, in which the spindle lost their initial bipolarity and underwent dynamic remodeling of the pole(s) were scored as having unstable spindle poles. […] Oocytes, in which the spindle had more than two poles, were scored as having multipolar spindle. In FIG. 1H, mouse oocytes, in which the spindle had two well-defined poles, were scored as having bipolar spindle. Mouse oocytes, in which the spindle had two poorly defined poles, were scored as having apolar/round spindle. Mouse oocytes, in which the spindle had more than two poles, were scored as having multipolar spindle. […] Mouse oocytes, in which the spindle lost its barrel shape but contains several weakly associated microtubule bundles, were scored as having disorganized spindle.

KIFC1/HSET: Recombinant mClover3-tagged human kinesin-14 KIFC1/HSET protein (SEQ ID NO: 1), expressed in 293 cells, microinjected into human oocytes and zygotes
frequency of zygotes with aligned chromosomes at anaphase onset ([1]; KIFC1-injected human 3PN zygotes, non-injected 20%, FIG. 9E): 57% | frequency of zygotes without lagging chromosomes during anaphase ([1]; KIFC1-injected human 3PN zygotes, non-injected 40%, FIG. 9F): 71% | multipolar / bipolar spindle assembly [1]: significantly reduces multipolar spindle assembly and/or promoted bipolar spindle assembly | multipolar / bipolar spindle assembly ([1]; listed as mClover3-KIFC1): significantly reduced multipolar spindle assembly and promoted bipolar spindle assembly | fold higher probability of having a bipolar spindle vs mimics without introduced KIFC1/HSET ([2]; FIG. 3H (left bar)): 3.2 fold | difference in percentage of bipolar spindles ([2]; from around 30% to 96%): 66% | bipolar spindles ([2]; re-introduction of KIFC1/HSET (rescue experiment) in human oocyte mimics, without around 30%, FIG. 3H): around 96%
